Key:
[1] = test system: panel of 39 human cancer cell lines; test: Growth inhibition against human cancer cell line panel (Sulforhodamine B, 48 h); assay type: cell-based
Procedure: (§1) Compound IX-8 was evaluated growth inhibition activities against a panel of 39 human cancer cell lines including Human breast cancer MDA-MB-231 and the following human cancer cell lines were generously distributed by the National Cancer Institute (Frederick, Md.): lung cancer, NCI-H23, NCI-H226, NCI-H522, NCI-H460, A-549, DMS273 and DMS114; colon cancer, HGC-2998, KM-12, HT-29, HCT-15, and HCT-116; ovarian cancer, OVCAR-3, OVCAR-4, OVCAR-5, OVCAR-8, and SKOV-3; breast cancer, MCF-7; renal cancer, RXF-631L and ACHN; melanoma, LOX-IMVI; brain tumor, U251, SF-295, SF-539, SF-268, SNB-75, and SNB-78, and prostate cancer, DU-145 and PC-3. […]
(§2) The details of measuring cell growth inhibition are described elsewhere [Monks, A., Scudiero, D., Skehan, P., Shoemaker, R., Paull, K., Vistica, D., Hose, C., Langley, J., Cronise, P., Vaigro-Wolff, A., Gray-Goodrich, M., Campbell, H., Mayo, J., Boyd, M. Feasibility of a high-flux anticancer drug screen using a diverse panel of cultured human tumor cell lines. […] Then, the cell growth was determined according to the Sulforhodamine B assay, described by Skehan et al [Skehan, P., Storeng, R., Scudiero, D., Monks, A., McMahon, J., Vistica, D., Warren, J. T., Bokesch, H., Kenney, S., Boyd, M. R. New calorimetric cytotoxicity assay for anticancer-drug screening. […]

[2] = test system: OVCAR-4 (ovarian cancer); test: Growth inhibition in human cancer cell line panel, OVCAR-4; assay type: cell-based; details: 48 hr, SRB
Procedure: as §1, §2

- MG-MID (mean growth midpoint) of log GI50 ([1]; mean over cell line panel, 10^−4 to 10^−8 M): −6.22 M
- GI50 [2]: 174 nM
- melting point: 268 °C (dec.)
SMILES: COc1ccc2[nH]c(-c3cccc(F)c3)c(C(=O)O)c(=O)c2c1 [IX-8, 3′-Fluoro-6-methoxy-2-phenyl-4-quinolone-3-carboxylic acid]
- activity against cancer cell line panel in words ([1]; cell line panel): active against most cancer cell lines

From patent publication US6897316B2, “Substituted 2-phenyl-4-quinolone-3-carboxylic acid compounds and their use as antitumor agents” (China Medical University, priority 2003, dated 2005)
